Test results taken from ChEMBL document CHEMBL4818999, “Pyrido[2, 3-d]pyrimidin-7(8H)-ones as new selective orally bioavailable Threonine Tyrosine Kinase (TTK) inhibitors” (Eur J Med Chem, 2021).
pIC50, pKd: −log10 of the molar value.

Assays:
[1] = Oral bioavailability in Sprague-Dawley rat at 25 mg/kg; assay type: ADME, organism-based; details: in vivo
[2] = target: Mitogen-activated protein kinase 9 (Homo sapiens) (UniProt P45984); details: dose 100.0 nM
Description: Inhibition of human recombinant JNK2 using ATF2 at 100 nM direct filter-binding radiometric kinase activity assay relative to control

[3] = target: Phosphatidylinositol 4,5-bisphosphate 3-kinase catalytic subunit delta isoform (Homo sapiens, UniProt O00329); test: Binding affinity to wild-type human partial length PIK3CD (R108 to Q1044 residues) expressed in HEK293 cells by active site-directed competition binding based Kinomescan method; assay type: cell-based
COLO 205 = test: Antiproliferative activity against human COLO-205 cells assessed as growth inhibition after 96 hrs by CCK8 assay; assay type: functional, cell-based; details: COLO 205, 96 h
[4] = AUC (0 to infinity) in Sprague-Dawley rat at 25 mg/kg, po; assay type: ADME, organism-based; set-up: time infinity, route oral, dose 25 mg/kg; details: in vivo
HCT-116 [5] = test: Induction of apoptosis in human HCT-116 cells assessed as early apoptotic cells at 333.3 nM incubated for 48 hrs by annexin V and 7-AAD staining based flow cytometry analysis (reference value: 8.12 %); assay type: functional
HCT-116 [6] = test: Induction of apoptosis in human HCT-116 cells assessed as late apoptotic cells at 1000 nM incubated for 48 hrs by annexin V and 7-AAD staining based flow cytometry analysis (reference value: 8.59 %); assay type: functional
[7] = AUC (0 to infinity) in Sprague-Dawley rat at 5 mg/kg, iv; assay type: ADME, organism-based; set-up: route intravenous, time infinity, dose 5 mg/kg; details: in vivo
HCT-116 [8] = test: Induction of apoptosis in human HCT-116 cells assessed as viable cells at 111.1 nM incubated for 48 hrs by annexin V and 7-AAD staining based flow cytometry analysis (reference value: 82.09 %); assay type: functional; details: read-out: Activity
[9] = Cmax in Sprague-Dawley rat at 25 mg/kg, po; assay type: ADME, organism-based; set-up: route oral, dose 25 mg/kg; details: in vivo
HCT-116 [10] = test: Induction of apoptosis in human HCT-116 cells assessed as […] cells at 1000 nM incubated for 48 hrs by annexin V and 7-AAD staining based flow cytometry analysis (reference value: 1.20 %); assay type: functional
[11] = Toxicity in CB17-SCID mouse xenografted with human HCT-116 cells xenografted assessed as liver damage at 50 mg/kg, po administered once daily relative to control; assay type: organism-based; details: in vivo
HCT-116 [12] = test: Antitumor activity at human HCT-116 cells xenografted in CB17-SCID mouse assessed as tumor growth inhibition at 50 mg/kg, po administered once daily for 16 days in combination with paclitaxel at 20 mg/kg, ip once weekly relative to control; assay type: functional; details: HCT-116, 384 h, time 16 day, read-out: TGI
[13] = Half life in Sprague-Dawley rat at 25 mg/kg, po; assay type: ADME, organism-based; details: in vivo
[14] = target: Serine/threonine-protein kinase 16 (Homo sapiens) (UniProt O75716); details: dose 100.0 nM
Serine/threonine-protein kinase 16 (Homo sapiens), sequence (O75716 whole entry): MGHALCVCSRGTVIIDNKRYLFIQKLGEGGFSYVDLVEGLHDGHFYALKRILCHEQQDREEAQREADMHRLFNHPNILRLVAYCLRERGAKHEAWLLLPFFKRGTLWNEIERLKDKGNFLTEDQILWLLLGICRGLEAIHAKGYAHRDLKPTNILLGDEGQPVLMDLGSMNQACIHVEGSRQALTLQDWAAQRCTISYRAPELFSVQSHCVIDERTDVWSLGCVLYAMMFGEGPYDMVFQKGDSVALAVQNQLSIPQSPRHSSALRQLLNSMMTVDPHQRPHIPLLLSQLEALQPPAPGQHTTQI
Description: Inhibition of human STK16 at 100 nM by direct-filter Binding radiometric assay relative to control

[15] = target: Serine/threonine-protein kinase ULK1 (Homo sapiens) (UniProt O75385); details: dose 100.0 nM
Description: Inhibition of human recombinat ULK1 (1 to 314) using casein as substrate at 100 nM direct filter-binding radiometric kinase activity assay relative to control

[16] = target: Serine/threonine-protein kinase DCLK1 (Homo sapiens) (UniProt O15075); details: dose 100.0 nM
Serine/threonine-protein kinase DCLK1 (Homo sapiens), sequence (O15075 whole entry): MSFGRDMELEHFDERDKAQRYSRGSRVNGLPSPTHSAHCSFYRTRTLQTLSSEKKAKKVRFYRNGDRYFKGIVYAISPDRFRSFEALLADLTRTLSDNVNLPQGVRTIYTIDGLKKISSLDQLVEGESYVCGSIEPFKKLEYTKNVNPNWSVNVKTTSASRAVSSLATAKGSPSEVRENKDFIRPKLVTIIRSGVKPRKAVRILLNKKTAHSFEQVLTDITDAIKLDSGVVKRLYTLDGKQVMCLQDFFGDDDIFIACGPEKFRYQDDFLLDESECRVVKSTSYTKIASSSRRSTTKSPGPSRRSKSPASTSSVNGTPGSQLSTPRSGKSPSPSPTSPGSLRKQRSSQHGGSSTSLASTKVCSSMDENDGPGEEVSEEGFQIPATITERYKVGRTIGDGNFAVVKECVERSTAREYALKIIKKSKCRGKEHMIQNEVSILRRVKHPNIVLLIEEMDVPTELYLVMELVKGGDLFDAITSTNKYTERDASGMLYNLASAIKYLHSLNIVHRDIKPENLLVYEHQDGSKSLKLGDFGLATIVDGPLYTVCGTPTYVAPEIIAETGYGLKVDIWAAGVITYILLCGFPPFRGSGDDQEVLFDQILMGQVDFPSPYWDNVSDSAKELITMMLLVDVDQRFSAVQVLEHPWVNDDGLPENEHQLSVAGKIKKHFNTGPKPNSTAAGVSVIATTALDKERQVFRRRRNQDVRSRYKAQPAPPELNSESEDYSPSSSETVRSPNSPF
Description: Inhibition of human DCAMKL1 at 100 nM by direct-filter Binding radiometric assay relative to control

[17] = target: STE20/SPS1-related proline-alanine-rich protein kinase (Homo sapiens) (UniProt Q9UEW8); details: dose 100.0 nM
Description: Inhibition of human STK39 at 100 nM by direct-filter Binding radiometric assay relative t

[18] = Toxicity in CB17-SCID mouse xenografted with human HCT-116 cells xenografted assessed as body weight loss at 50 mg/kg, po administered once daily relative to control; assay type: organism-based; details: in vivo
[19] = target: T1, Interleukin-1 receptor-associated kinase 1 (Homo sapiens, UniProt P51617); details: dose 100.0 nM
Target sequence in this assay (P51617 whole entry, looked up): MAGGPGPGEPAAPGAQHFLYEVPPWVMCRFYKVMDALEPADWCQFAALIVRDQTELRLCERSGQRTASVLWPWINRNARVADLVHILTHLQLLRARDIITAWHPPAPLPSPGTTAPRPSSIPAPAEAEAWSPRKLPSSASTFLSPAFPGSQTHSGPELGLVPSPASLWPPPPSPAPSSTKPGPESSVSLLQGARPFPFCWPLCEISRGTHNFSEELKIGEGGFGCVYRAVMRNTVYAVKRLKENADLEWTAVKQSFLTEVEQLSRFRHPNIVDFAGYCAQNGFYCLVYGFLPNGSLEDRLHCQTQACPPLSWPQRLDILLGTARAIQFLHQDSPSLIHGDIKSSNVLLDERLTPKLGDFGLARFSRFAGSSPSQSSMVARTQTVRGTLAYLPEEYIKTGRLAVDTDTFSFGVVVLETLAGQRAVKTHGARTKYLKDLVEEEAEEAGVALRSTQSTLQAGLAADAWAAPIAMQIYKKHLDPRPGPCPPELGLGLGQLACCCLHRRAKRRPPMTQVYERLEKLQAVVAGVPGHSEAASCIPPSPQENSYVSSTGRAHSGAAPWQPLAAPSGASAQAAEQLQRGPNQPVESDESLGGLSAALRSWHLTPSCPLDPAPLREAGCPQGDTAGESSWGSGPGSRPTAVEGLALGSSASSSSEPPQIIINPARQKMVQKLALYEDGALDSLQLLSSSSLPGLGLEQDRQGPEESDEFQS
Description: Inhibition of human recombinant IRAK1 (198 to end) using myelin ba as substrate at 100 nM direct filter-binding radiometric kinase activity assay relative to control

HCT-116 [20] = test: Induction of apoptosis in human HCT-116 cells assessed as late apoptotic cells at 111.1 nM incubated for 48 hrs by annexin V and 7-AAD staining based flow cytometry analysis (reference value: 8.59 %); assay type: functional
[21] = Half life in Sprague-Dawley rat at 5 mg/kg, iv; assay type: ADME, organism-based; details: in vivo
HCT-116 [22] = test: Induction of apoptosis in human HCT-116 cells assessed as viable cells at 333.3 nM incubated for 48 hrs by annexin V and 7-AAD staining based flow cytometry analysis (reference value: 82.09 %); assay type: functional; details: read-out: Activity
[23] = target: Mitogen-activated protein kinase 8 (Homo sapiens) (UniProt P45983); details: dose 100.0 nM
Mitogen-activated protein kinase 8 (Homo sapiens), sequence (P45983 whole entry): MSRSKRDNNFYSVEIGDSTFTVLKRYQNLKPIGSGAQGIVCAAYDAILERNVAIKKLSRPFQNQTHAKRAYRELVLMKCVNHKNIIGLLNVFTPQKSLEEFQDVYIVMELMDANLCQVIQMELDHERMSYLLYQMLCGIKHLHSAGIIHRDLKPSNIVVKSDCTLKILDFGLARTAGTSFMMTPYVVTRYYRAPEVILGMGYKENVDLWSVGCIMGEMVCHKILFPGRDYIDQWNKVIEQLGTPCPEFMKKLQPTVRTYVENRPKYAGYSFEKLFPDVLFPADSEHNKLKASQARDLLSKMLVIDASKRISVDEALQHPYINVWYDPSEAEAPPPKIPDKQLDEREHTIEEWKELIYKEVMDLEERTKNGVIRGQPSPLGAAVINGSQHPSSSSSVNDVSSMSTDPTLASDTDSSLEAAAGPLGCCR
Description: Inhibition of human full length JNK-1 using ATF2 as substrate at 100 nM direct filter-binding radiometric kinase activity assay relative to control

[24] = Cmax in Sprague-Dawley rat at 5 mg/kg, iv; assay type: ADME, organism-based; set-up: route intravenous, dose 5 mg/kg; details: in vivo
[25] = target: T1, Interleukin-1 receptor-associated kinase 1; test: Binding affinity to wild-type human partial length IRAK1 (R194 to S712 residues) expressed in mammalian expression system by active site-directed competition binding based Kinomescan method
Target sequence in this assay (P51617 whole entry): as the sequence (P51617 whole entry, looked up) above

HCT-116 [26] = test: Induction of apoptosis in human HCT-116 cells assessed as necrotic cells at 111.1 nM incubated for 48 hrs by annexin V and 7-AAD staining based flow cytometry analysis (reference value: 1.20 %); assay type: functional
HCT-116 [27] = test: Induction of apoptosis in human HCT-116 cells assessed as viable cells at 1000 nM incubated for 48 hrs by annexin V and 7-AAD staining based flow cytometry analysis (reference value: 82.09 %); assay type: functional; details: read-out: Activity
A549 = test: Antiproliferative activity against human A549 cells assessed as growth inhibition after 96 hrs by CCK8 assay; assay type: functional, cell-based; details: A549, 96 h
[28] = Clearance in Sprague-Dawley rat at 5 mg/kg, iv; assay type: ADME, organism-based; details: in vivo
HCT-116 [29] = test: Induction of apoptosis in human HCT-116 cells assessed as early apoptotic cells at 1000 nM incubated for 48 hrs by annexin V and 7-AAD staining based flow cytometry analysis (reference value: 8.12 %); assay type: functional
HCT-116 [30] = test: Induction of apoptosis in human HCT-116 cells assessed as late apoptotic cells at 333.3 nM incubated for 48 hrs by annexin V and 7-AAD staining based flow cytometry analysis (reference value: 8.59 %); assay type: functional
[31] = target: Mitogen-activated protein kinase 10 (Homo sapiens) (UniProt P53779); details: dose 100.0 nM
Description: Inhibition of human full length JNK3 at 100 nM by direct-filter Binding radiometric assay relative to control

[32] = target: Serine/threonine-protein kinase ULK2 (Homo sapiens) (UniProt Q8IYT8); details: dose 100.0 nM
Serine/threonine-protein kinase ULK2 (Homo sapiens), sequence (Q8IYT8 whole entry): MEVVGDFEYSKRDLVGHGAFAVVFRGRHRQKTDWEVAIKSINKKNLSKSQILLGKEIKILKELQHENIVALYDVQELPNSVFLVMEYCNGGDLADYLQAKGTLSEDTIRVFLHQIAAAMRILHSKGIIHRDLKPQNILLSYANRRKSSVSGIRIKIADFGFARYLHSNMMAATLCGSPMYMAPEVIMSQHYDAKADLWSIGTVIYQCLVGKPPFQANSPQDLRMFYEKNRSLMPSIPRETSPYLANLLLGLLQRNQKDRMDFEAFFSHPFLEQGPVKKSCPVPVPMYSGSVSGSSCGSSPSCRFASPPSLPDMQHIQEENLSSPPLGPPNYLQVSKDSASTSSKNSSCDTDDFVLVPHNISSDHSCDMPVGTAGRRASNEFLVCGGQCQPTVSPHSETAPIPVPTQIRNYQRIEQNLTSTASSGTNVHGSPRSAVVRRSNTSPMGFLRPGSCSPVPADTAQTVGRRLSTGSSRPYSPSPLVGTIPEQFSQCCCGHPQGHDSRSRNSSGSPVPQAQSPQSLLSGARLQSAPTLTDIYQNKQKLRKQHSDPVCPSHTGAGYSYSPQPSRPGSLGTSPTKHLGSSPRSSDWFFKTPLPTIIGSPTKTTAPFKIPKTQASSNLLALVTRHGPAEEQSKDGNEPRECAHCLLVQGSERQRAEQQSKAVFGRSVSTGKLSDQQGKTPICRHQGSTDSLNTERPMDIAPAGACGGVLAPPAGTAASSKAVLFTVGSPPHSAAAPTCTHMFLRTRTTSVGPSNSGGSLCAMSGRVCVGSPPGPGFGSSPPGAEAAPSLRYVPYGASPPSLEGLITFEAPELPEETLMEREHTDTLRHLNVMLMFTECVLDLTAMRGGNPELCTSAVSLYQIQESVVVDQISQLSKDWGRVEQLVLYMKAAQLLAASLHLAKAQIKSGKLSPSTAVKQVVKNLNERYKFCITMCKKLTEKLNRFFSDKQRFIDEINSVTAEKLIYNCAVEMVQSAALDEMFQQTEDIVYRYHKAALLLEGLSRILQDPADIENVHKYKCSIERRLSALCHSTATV
Description: Inhibition of human recombinant ULK2 (1 to 306) using casein at 100 nM direct filter-binding radiometric kinase activity assay relative to control

[33] = target: Casein kinase II subunit alpha (Homo sapiens) (UniProt P68400); details: dose 100.0 nM
Casein kinase II subunit alpha (Homo sapiens), sequence (P68400 whole entry, looked up, the tested form may be a part): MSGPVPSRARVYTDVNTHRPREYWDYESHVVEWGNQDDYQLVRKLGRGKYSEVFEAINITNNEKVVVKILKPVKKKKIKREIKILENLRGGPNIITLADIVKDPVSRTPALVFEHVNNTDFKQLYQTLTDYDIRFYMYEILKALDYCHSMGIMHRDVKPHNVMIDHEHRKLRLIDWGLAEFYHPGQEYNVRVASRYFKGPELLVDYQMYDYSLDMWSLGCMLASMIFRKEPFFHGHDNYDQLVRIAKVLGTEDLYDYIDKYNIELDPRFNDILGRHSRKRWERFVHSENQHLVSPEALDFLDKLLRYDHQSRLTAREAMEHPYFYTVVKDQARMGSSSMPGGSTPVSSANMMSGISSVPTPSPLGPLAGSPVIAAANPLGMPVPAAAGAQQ

[34] = target: Death-associated protein kinase 3 (Homo sapiens, UniProt O43293); test: Binding affinity to wild-type human partial length DAPK3 (M1 to A277 residues) expressed in bacterial expression system by measuring active site-directed competition binding based Kinomescan method
[35] = target: MAP/microtubule affinity-regulating kinase 3 (Homo sapiens, UniProt P27448); test: Binding affinity to wild-type human full length MARK3 (M1 to L729 residues) expressed in bacterial expression system by measuring active site-directed competition binding based Kinomescan method
MAP/microtubule affinity-regulating kinase 3, sequence (P27448 whole entry, the tested form may be a part): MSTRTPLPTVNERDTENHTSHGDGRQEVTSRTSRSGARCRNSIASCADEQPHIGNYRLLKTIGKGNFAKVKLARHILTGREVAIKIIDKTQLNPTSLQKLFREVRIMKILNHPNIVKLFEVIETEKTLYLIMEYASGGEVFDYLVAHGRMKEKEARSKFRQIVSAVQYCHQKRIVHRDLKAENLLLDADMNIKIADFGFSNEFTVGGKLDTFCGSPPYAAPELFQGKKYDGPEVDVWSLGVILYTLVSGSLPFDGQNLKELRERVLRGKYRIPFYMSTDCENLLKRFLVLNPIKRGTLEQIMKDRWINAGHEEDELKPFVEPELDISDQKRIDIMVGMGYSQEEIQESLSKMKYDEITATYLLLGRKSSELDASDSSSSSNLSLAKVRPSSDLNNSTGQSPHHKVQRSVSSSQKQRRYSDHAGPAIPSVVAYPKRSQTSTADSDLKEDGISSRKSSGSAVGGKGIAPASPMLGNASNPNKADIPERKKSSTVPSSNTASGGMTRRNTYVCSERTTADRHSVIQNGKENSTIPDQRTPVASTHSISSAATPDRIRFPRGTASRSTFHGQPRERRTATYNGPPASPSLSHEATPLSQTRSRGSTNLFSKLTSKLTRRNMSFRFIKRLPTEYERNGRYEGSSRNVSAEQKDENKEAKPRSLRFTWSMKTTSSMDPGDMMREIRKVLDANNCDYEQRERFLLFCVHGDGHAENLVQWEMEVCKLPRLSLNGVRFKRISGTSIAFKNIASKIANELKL

[36] = target: Death-associated protein kinase 2 (Homo sapiens) (UniProt Q9UIK4); details: dose 100.0 nM
Death-associated protein kinase 2 (Homo sapiens), sequence (Q9UIK4 whole entry, looked up): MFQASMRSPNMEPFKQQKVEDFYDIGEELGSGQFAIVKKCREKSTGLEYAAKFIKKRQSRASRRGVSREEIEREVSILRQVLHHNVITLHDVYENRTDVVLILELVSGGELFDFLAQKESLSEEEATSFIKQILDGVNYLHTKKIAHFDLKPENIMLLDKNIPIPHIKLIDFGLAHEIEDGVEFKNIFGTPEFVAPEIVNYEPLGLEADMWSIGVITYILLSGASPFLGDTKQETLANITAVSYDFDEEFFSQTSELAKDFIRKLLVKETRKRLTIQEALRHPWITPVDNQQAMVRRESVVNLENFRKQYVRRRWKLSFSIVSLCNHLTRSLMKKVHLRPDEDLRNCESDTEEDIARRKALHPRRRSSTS
Description: Inhibition of human recombinant full length DAPK2 using Calmodulin as substrate at 100 nM direct filter-binding radiometric kinase activity assay relative to control

HCT-116 [37] = test: Antiproliferative activity against human HCT-116 cells assessed as growth inhibition after 96 hrs by CCK8 assay; assay type: functional, cell-based; details: HCT-116, 96 h

COc1cc(N2CCN(C)CC2)ccc1Nc1ncc2c(C)cc(=O)n([C@H]3CC[C@@H](NC(=O)C4CCCCC4)CC3)c2n1
bioavailability [1]: 45.2%
inhibition [2]: 86%
pKd [3]: < 6.00
pIC50 (COLO 205): 6.55
AUC(0-inf) [4]: 13000 ng·h/mL
Activity (HCT-116 [5]): 13.5%
Activity (HCT-116 [6]): 21.18%
AUC(0-inf) [7]: 5310 ng·h/mL
viability at 0.1111 µM (HCT-116 [8]): 89.5%
Cmax [9]: 1230 ng/mL
Activity (HCT-116 [10]): 3.44%
Activity [11]: Non-Toxic
inhibition in vivo at 50 mg/kg (HCT-116 [12]): 78%
half-life [13]: 6.01 h
inhibition [14]: 87%
inhibition [15]: 68%
inhibition [16]: 80%
inhibition [17]: 75%
Activity [18]: < 15%
inhibition [19]: 91.8%
Activity (HCT-116 [20]): 5.3%
half-life [21]: 3.58 h
viability at 0.3333 µM (HCT-116 [22]): 70.7%
inhibition [23]: 75%
Cmax [24]: 2530 ng/mL
pKd [25]: < 6.00
Activity (HCT-116 [26]): 0.75%
viability at 1 µM (HCT-116 [27]): 56.6%
pIC50 (A549): 5.36
clearance [28]: 15.8 mL/min/kg
Activity (HCT-116 [29]): 18.81%
Activity (HCT-116 [30]): 13.81%
inhibition [31]: 87%
inhibition [32]: 85%
inhibition [33]: 69%
pKd [34]: 7.89
pKd [35]: 7.96
inhibition [36]: 65%
pIC50 (HCT-116 [37]): 6.39
